Patent US20050096278A1, “Antibacterial agents” (priority 2003, published 2005)
In brackets after ≈: the same amount, converted by molar mass.

Tests used:
[1] = test system: E. faecalis MGH-2; test: Antibacterial assay (standard microtitration), MIC; format: cell-based; settings: Enterococcus faecalis, MGH2; Gram Positive Bacteria; Table 1B; read-out: Minimum Inhibitory Concentrations, E. faecalis MGH-2
Protocol: (§1) Test A—Antibacterial Assays
(§2) The compounds of the present invention were tested against an assortment of Gram-negative and Gram-positive organisms using standard microtitration techniques (Cohen et. al., Antimicrob., 1985;28:766; Heifetz, et. al., Antimicrob., 1974;6:124). The results of the evaluation are shown in Tables 1A and B. In the tables, “—” means no data.

[2] = test system: S pyogenes C203; test: Antibacterial assay (standard microtitration), MIC; format: cell-based; settings: Gram Positive Bacteria; Table 1B; read-out: Minimum Inhibitory Concentrations, S pyogenes C203
Protocol: as §1, §2

[3] = test system: S. aureus UC-76; test: Antibacterial assay (standard microtitration), MIC; format: cell-based; settings: Staphylococcus aureus, UC76, Gram Positive Bacteria; Table 1B; read-out: Minimum Inhibitory Concentrations, S. aureus UC-76
Protocol: as §1, §2

[4] = test system: E. coli MC4100; test: Antibacterial assay (standard microtitration), MIC; format: cell-based; settings: Gram Negative Bacteria, Table 1A; for MIC: Escherichia coli, MC4100, read-out: Minimum Inhibitory Concentrations, E. coli MC4100
Protocol: as §1, §2

[5] = test system: H. influenzae HI-3542; test: Antibacterial assay (standard microtitration), MIC; format: cell-based; settings: Gram Negative Bacteria, Table 1A; for MIC: Haemophilus influenzae, HI3542, read-out: Minimum Inhibitory Concentrations, H. influenzae HI-3542
Protocol: as §1, §2

[6] = test system: M. catarrhalis BC-3531; test: Antibacterial assay (standard microtitration), MIC; format: cell-based; settings: Moraxella catarrhalis, BC3531; Gram Negative Bacteria; Table 1A; read-out: Minimum Inhibitory Concentrations, M. catarrhalis BC-3531
Protocol: as §1, §2

Row | Compound | MIC [4] [µg/mL] | MIC [5] [µg/mL] | MIC [6] [µg/mL] | also measured
1 | COc1c(N2CCC(O)(CO)CC2)c(F)cc2c(=O)c(C(=O)O)cn(C3CC3)c12 | – | – | – | melting point: 200 to 210 °C (dec.)
2 | COc1c(N2CCC(O)C(CO)C2)c(F)cc2c(=O)c(C(=O)O)cn(C3CC3)c12 (stereo not drawn) | – | – | – | melting point: 115 to 125 °C
3 | COc1c(N2CCC(C(O)CO)CC2)c(F)cc2c(=O)c(C(=O)O)cn(C3CC3)c12 (stereo not drawn) | – | – | – | melting point: 200 to 204 °C
4 | COc1c(N2CCC(C(O)CCO)CC2)c(F)cc2c(=O)c(C(=O)O)cn(C3CC3)c12 (stereo not drawn) | – | – | – | melting point: 210 to 214 °C
5 | Cc1c(N2CCC(O)C(CO)C2)c(F)cc2c(=O)c(C(=O)O)cn(C3CC3)c12 (stereo not drawn) | – | – | – | MIC [1]: 0.25 µg/mL (≈ 0.64 µM); MIC [2]: 0.25 µg/mL (≈ 0.64 µM); MIC [3]: 0.015 µg/mL (≈ 0.0384 µM)
6 | COc1c(N2CCC(CCO)CC2)c(F)cc2c(=O)c(C(=O)O)cn(C3CC3)c12 | – | – | – | MIC [1]: 0.125 µg/mL (≈ 0.309 µM); MIC [2]: 0.25 µg/mL (≈ 0.618 µM); MIC [3]: 0.015 µg/mL (≈ 0.0371 µM)
7 | COc1c(N2CCC(O)C(CO)C2)c(F)cc2c(=O)c(C(=O)O)cn(C3CC3)c12 (stereo not drawn) [drawing 324] | 0.25 (≈ 0.615 µM) | 0.015 (≈ 0.0369 µM) | 0.125 (≈ 0.308 µM) | –
8 | COc1c(N2CCC3(CC2)OCCO3)c(F)cc2c(=O)c(C(=O)O)cn(C3CC3)c12 [drawing 325] | 0.5 (≈ 1.19 µM) | 0.06 (≈ 0.143 µM) | 0.06 (≈ 0.143 µM) | –
9 | Cc1c(N2CCC(CCO)CC2)c(F)cc2c(=O)c(C(=O)O)cn(C3CC3)c12 [drawing 326] | 0.06 (≈ 0.154 µM) | 0.03 (≈ 0.0772 µM) | 0.015 (≈ 0.0386 µM) | –
10 | COc1c(N2CCC(C(O)CO)CC2)c(F)cc2c(=O)c(C(=O)O)cn(C3CC3)c12 (stereo not drawn) [drawing 327] | 0.125 (≈ 0.297 µM) | 0.03 (≈ 0.0714 µM) | 0.06 (≈ 0.143 µM) | –
11 | COc1c(N2CCC(O)(CO)CC2)c(F)cc2c(=O)c(C(=O)O)cn(C3CC3)c12 [drawing 328] | 0.25 (≈ 0.615 µM) | 0.015 (≈ 0.0369 µM) | 0.125 (≈ 0.308 µM) | –
12 | COc1c(N2CCC(CO)CC2)c(F)cc2c(=O)c(C(=O)O)cn(C3CC3)c12 [drawing 329] | 0.125 (≈ 0.32 µM) | 0.015 (≈ 0.0384 µM) | 0.015 (≈ 0.0384 µM) | –
13 | Cc1c(N2CCC(O)C(C)(C)C2)c(F)cc2c(=O)c(C(=O)O)cn(C3CC3)c12 (stereo not drawn) [drawing 330] | 2 (≈ 5.15 µM) | 0.125 (≈ 0.322 µM) | 0.5 (≈ 1.29 µM) | –
14 | COc1c(N2CCC(O)C(C)(C)C2)c(F)cc2c(=O)c(C(=O)O)cn(C3CC3)c12 (stereo not drawn) [drawing 331] | 0.25 (≈ 0.618 µM) | 0.125 (≈ 0.309 µM) | 0.125 (≈ 0.309 µM) | –
15 | COc1c(N2CCC(O)C(C)C2)c(F)cc2c(=O)c(C(=O)O)cn(C3CC3)c12 (stereo not drawn) [drawing 332] | 0.25 (≈ 0.64 µM) | 0.03 (≈ 0.0768 µM) | 0.03 (≈ 0.0768 µM) | –
16 | COc1c(N2CCC(O)(c3ccccc3)CC2)c(F)cc2c(=O)c(C(=O)O)cn(C3CC3)c12 [drawing 333] | 32 (≈ 70.7 µM) | 2 (≈ 4.42 µM) | 1 (≈ 2.21 µM) | –
17 | COc1c(N2CCCC(C(O)CO)C2)c(F)cc2c(=O)c(C(=O)O)cn(C3CC3)c12 (stereo not drawn) [drawing 334] | 1 (≈ 2.38 µM) | 0.125 (≈ 0.297 µM) | 0.25 (≈ 0.595 µM) | –
18 | COc1c(N2CCCC(CO)C2)c(F)cc2c(=O)c(C(=O)O)cn(C3CC3)c12 (stereo not drawn) [drawing 335] | 0.25 (≈ 0.64 µM) | 0.03 (≈ 0.0768 µM) | 0.06 (≈ 0.154 µM) | –
19 | COc1c(N2CCCC(O)(CO)C2)c(F)cc2c(=O)c(C(=O)O)cn(C3CC3)c12 (stereo not drawn) [drawing 336] | 1 (≈ 2.46 µM) | 0.03 (≈ 0.0738 µM) | 0.5 (≈ 1.23 µM) | –
20 | COc1c(N2CCC(O)C(C)C2)c(F)cc2c(=O)c(C(=O)O)cn(C3CC3)c12 (stereo not drawn) [drawing 337] | – | – | – | Minimum Inhibitory Concentrations, E. coli MC4100 [4]: 0.25 µg/mL; Minimum Inhibitory Concentrations, H. influenzae HI-3542 [5]: 0.03 µg/mL
